Data as given in patent US20210169992A1, “COMPOSITIONS AND METHODS FOR INHIBITING THE PRODUCTION OR ACTIVITY OF D-2HYDROXYGLUTARATE IN SUBJECTS AFFLICTED WITH CANCER” (President and Fellows of Harvard College, priority 2019, published 2021).
Entries after “also recorded” stand apart in the source; their conditions may differ.

Key:
Format in all cases: cell-based
T cells [1] = experiment: ROS levels following 24 hour treatment; conditions: FIG. 7
Excerpt: (§1) H2O2 and NAC were used as positive and negative controls, respectively. *P<0.05, **P<0.01, ***P<0.001, ****P<0.0001 (Two-way ANOVA).

T cells [2] = experiment: TCA cycle metabolite levels after 48 hour treatment upon T cell activation; conditions: FIG. 2
Method: A 2 day treatment of 1 mM NMN was used as a positive control. *P<0.05, **P<0.01 (Student's t test and two-way ANOVA).

D2HGDH = target: T1, D2HGDH (Homo sapiens, UniProt Q8N465); experiment: Isotope tracing of uniformly carbon labeled D-2HG into the TCA cycle; conditions: FIG. 8
T1 construct: endogenous in cells
T1 sequence (Q8N465 14-521): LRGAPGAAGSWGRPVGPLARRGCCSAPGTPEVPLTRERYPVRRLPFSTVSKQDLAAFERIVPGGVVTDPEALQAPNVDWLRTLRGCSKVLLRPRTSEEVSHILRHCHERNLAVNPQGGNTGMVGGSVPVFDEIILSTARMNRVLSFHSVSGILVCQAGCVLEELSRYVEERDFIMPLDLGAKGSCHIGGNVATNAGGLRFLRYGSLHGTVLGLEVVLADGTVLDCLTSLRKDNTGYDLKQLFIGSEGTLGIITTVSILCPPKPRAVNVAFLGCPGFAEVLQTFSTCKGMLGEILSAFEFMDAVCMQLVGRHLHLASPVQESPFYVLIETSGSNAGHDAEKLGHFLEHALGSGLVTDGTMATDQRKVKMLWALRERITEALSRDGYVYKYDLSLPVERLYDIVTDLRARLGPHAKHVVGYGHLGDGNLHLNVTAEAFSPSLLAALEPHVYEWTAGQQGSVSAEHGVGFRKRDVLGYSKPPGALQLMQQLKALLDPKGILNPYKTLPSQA

T cells [3] = experiment: Mitochondrial respiration / electron transport chain function in T cells; conditions: D-2HG treated T cells, stress conditions
Excerpt: as §1

T cells [4] = experiment: Metabolite profiling during time course of T cell activation with and without D-2HG; conditions: T cells activated with vs without D-2HG; FIG. 1
Excerpt: Log 2 fold change was normalized to the average levels of control group.

T cells [5] = experiment: T cell proliferation upon activation by Cell Trace Violet staining; conditions: different concentrations of D-2HG, FIG. 6
GL261 cells = experiment: Mitochondrial membrane potential by TMRE staining in GL261 cells; conditions: cancer cells (GL261); FIG. 3
Method: Mitochondrial membrane potential was measured by TMRE staining in control, D-2HG, and L-2HG treated GL261 cells.

T cells [6] = experiment: D-2HG uptake in T cells
Excerpt: as §1

T cells [7] = experiment: Apoptosis by Annexin and PI staining; conditions: after 24 hours of treatment; FIG. 6
T cells [8] = experiment: Effector function and antigen specific killing assay, OT-1 T cells against B16 OVA+ or OVA− tumor cells
Excerpt: Data were normalized to cell number. […] Data were normalized to cell number.

T cells [9] = experiment: Mitochondrial membrane potential by TMRE staining in T cells; conditions: FIG. 4, FIG. 7
Excerpt: as §1

Row | Compound | ROS production (T cells [1]) | TCA cycle metabolite levels (T cells [2]) | metabolism of D-2HG (D2HGDH) | ETC function (T cells [3]) | effect on T cell metabolism upon activation (T cells [4]) | T cell proliferation (T cells [5]) | mitochondrial membrane potential (TMRE) (GL261 cells) | uptake by T cells (T cells [6]) | apoptosis (T cells [7]) | expression of effector markers (T cells [8]; D-2HG treated T cells) | antitumor activity / killing by treated T cells (T cells [8]; T cells activated in presence of D-2HG, FIG. 9) | mitochondrial membrane potential (TMRE) (T cells [9])
1 | O=C(O)CC[C@@H](O)C(=O)O [D-2HG, D-2hydroxyglutarate] | increased ROS production | causes accumulation of TCA cycle metabolites | is metabolized by D2HGDH | ETC function is impaired under stress conditions | causes broad changes in T cell metabolism upon activation | slows down proliferation | mild effect on mitochondrial membrane potential | is taken up by T cells | promotes apoptosis | increased expression of effector markers | reduced killing; also recorded: results in the generation of effector T cells with inferior antitumor activity | causes mitochondrial hyperpolarization
2 | N#CC(C#N)=NNc1ccc(OC(F)(F)F)cc1 [FCCP, reference compound] |  |  |  |  |  |  |  |  |  |  |  | decouples membrane potential in both control and D-2HG treated conditions
